Literature values in PubChem BioAssay AID1259409 (Chemical Carcinogenesis Research Information System (CCRIS), 2018).

System: rodent chemically induced tumor inhibition, incidence and multiplicity
Test: CCRIS tumor inhibitor studies

SMILES: O=C1OC(c2ccc(O)cc2)Cc2cccc(O)c21 (configuration not stated)
- tumour outcome (control, treated, inhibition, significance) (Carcinogen: AZOXYMETHANE [25843-45-2], Dose [Inhibitor]: 200 PPM IN DIET FOR 4 WK BEGINNING 1 WK PRIOR TO FIRST CARCINOGEN DOSE (STUDY DURATION: 35 WK), Route [Inhibitor]: ORAL, Species: RAT, Strain/Sex: F344/MALE, Target Tissue: Type of Lesion: COLON: ADENOMA, Dose [Carcinogen]: 15 MG/KG BW 1X/WK FOR 3 WK (STUDY DURATION: 35 WK), Promoter: NONE): 6/28 (21%), 2/29 (7%), 67%, not significant
- tumour outcome (control, treated, inhibition, significance) (Carcinogen: AZOXYMETHANE [25843-45-2], Dose [Inhibitor]: 200 PPM IN DIET FOR 4 WK BEGINNING 1 WK PRIOR TO FIRST CARCINOGEN DOSE (STUDY DURATION: 35 WK), Route [Inhibitor]: ORAL, Species: RAT, Strain/Sex: F344/MALE, Target Tissue: Type of Lesion: COLON: CARCINOMA, Dose [Carcinogen]: 15 MG/KG BW 1X/WK FOR 3 WK (STUDY DURATION: 35 WK), Promoter: NONE): 8/28 (29%), 10/29 (34%), -17%, not significant
- tumour outcome (control, treated, inhibition, significance) (Carcinogen: AZOXYMETHANE [25843-45-2], Dose [Inhibitor]: 200 PPM IN DIET FOR 4 WK BEGINNING 1 WK PRIOR TO FIRST CARCINOGEN DOSE (STUDY DURATION: 35 WK), Route [Inhibitor]: ORAL, Species: RAT, Strain/Sex: F344/MALE, Target Tissue: Type of Lesion: SMALL INTESTINE: CARCINOMA, Dose [Carcinogen]: 15 MG/KG BW 1X/WK FOR 3 WK (STUDY DURATION: 35 WK), Promoter: NONE): 7/28 (25%), 4/29 (14%), 44%, not significant

SMILES: O=[Se](=O)(O)O
- tumour outcome (control, treated, inhibition, significance) (Carcinogen: 7,12-DIMETHYLBENZ[A]ANTHRACENE, 57-97-6, Dose [Inhibitor]: 0, 0.2 PPM IN DIET BEGINNING 3 D PRIOR TO CARCINOGEN DOSE AND CONTINUING FOR 8 MO (STUDY DURATION: 8 MO), Route [Inhibitor]: ORAL, Species: MOUSE, Strain/Sex: BALB/FEMALE, Target Tissue: Type of Lesion: MAMMARY GLAND: ADENOCARCINOMA, Dose [Carcinogen]: 1 MG/WK FOR 6 WK, Promoter: NONE USED): 12/31 (39%), 7/24 (29%), 26%, not calculated
- tumour outcome (control, treated, inhibition, significance) (Carcinogen: 7,12-DIMETHYLBENZ[A]ANTHRACENE, 57-97-6, Dose [Inhibitor]: 0, 2 PPM IN DIET BEGINNING 3 D PRIOR TO CARCINOGEN DOSE AND CONTINUING FOR 8 MO (STUDY DURATION: 8 MO), Route [Inhibitor]: ORAL, Species: MOUSE, Strain/Sex: BALB/FEMALE, Target Tissue: Type of Lesion: MAMMARY GLAND: ADENOCARCINOMA, Dose [Carcinogen]: 1 MG/WK FOR 6 WK, Promoter: NONE USED): 12/31 (39%), 2/23 (9%), 77%, p<0.08

SMILES: Nc1nc(-c2ccccc2)c(Br)c(=O)[nH]1
- tumour outcome (control, treated, inhibition, significance) (Carcinogen: N-[4-(5-NITRO-2-FURYL)-2-THIAZOLYL]FORMAMIDE, 24554-26-5, Dose [Inhibitor]: 200 MG/KG IN CARBOXYMETHYL-CELLULOSE, POLYSORBATE 80, NACL AND BENZYL ALCOHOL, 2/WK BEGINNING ON DAY 30 OF CARCINOGEN TR, Route [Inhibitor]: INTRAGASTRIC, Species: MOUSE, Strain/Sex: C3H/FEMALE, Target Tissue: Type of Lesion: BLADDER: TRANSITIONAL CELL CARCINOMA, Dose [Carcinogen]: 0.13% IN DIET FOR 192 D, Promoter: NONE USED): 24/39 (62%), 6/43 (14%), 77%, p=0.0001
- tumour outcome (control, treated, inhibition, significance) (Carcinogen: N-[4-(5-NITRO-2-FURYL)-2-THIAZOLYL]FORMAMIDE, 24554-26-5, Dose [Inhibitor]: 200 MG/KG IN CARBOXYMETHYL-CELLULOSE, POLYSORBATE 80, NACL AND BENZYL ALCOHOL, 2/WK BEGINNING ON DAY 30 OF CARCINOGEN TR, Route [Inhibitor]: INTRAPERITONEAL, Species: MOUSE, Strain/Sex: C3H/FEMALE, Target Tissue: Type of Lesion: BLADDER: TRANSITIONAL CELL CARCINOMA, Dose [Carcinogen]: 0.13% IN DIET FOR 192 D, Promoter: NONE USED): 18/22 (82%), 5/9 (56%), 32%, p<0.2
- tumour outcome (control, treated, inhibition, significance) (Carcinogen: N-[4-(5-NITRO-2-FURYL)-2-THIAZOLYL]FORMAMIDE, 24554-26-5, Dose [Inhibitor]: 200 MG/KG IN CARBOXYMETHYL-CELLULOSE, POLYSORBATE 80, NACL AND BENZYL ALCOHOL, 2/WK BEGINNING ON DAY 150 OF CARCINOGEN T, Route [Inhibitor]: INTRAPERITONEAL, Species: MOUSE, Strain/Sex: C3H/FEMALE, Target Tissue: Type of Lesion: BLADDER: TRANSITIONAL CELL CARCINOMA, Dose [Carcinogen]: 0.13% IN DIET FOR 192 D, Promoter: NONE USED): 18/22 (82%), 17/19 (89%), -8%, p=0.489

SMILES: CCN(CC)C(=S)S
- outcome (Carcinogen: DIETHYLNITROSAMINE, 55-18-5, Dose [Inhibitor]: 0, 50 MG/KG 1/WK FOR 5 WK ADMINISTERED 4 HR POST EACH CARCINOGEN DOSE (STUDY DURATION: 6 MO), Route [Inhibitor]: INTRAPERITONEAL, Species: RAT, Strain/Sex: BD6/FEMALE, Target Tissue: Type of Lesion: ESOPHAGUS: TUMOR, Dose [Carcinogen]: 80 MG/KG BW 1/WK FOR 5 WK, Promoter: NONE USED): 6%, 77, -1183%, p<0.001
- tumour outcome (control, treated, inhibition, significance) (Carcinogen: DIETHYLNITROSAMINE, 55-18-5, Dose [Inhibitor]: 0, 50 MG/KG 1/WK FOR 5 WK ADMINISTERED 4 HR POST EACH CARCINOGEN DOSE (STUDY DURATION: 6 MO), Route [Inhibitor]: INTRAPERITONEAL, Species: RAT, Strain/Sex: BD6/FEMALE, Target Tissue: Type of Lesion: LIVER: TUMOR, Dose [Carcinogen]: 80 MG/KG BW 1/WK FOR 5 WK, Promoter: NONE USED): 44%, 77%, -75%, not significant
- tumour outcome (control, treated, inhibition, significance) (Carcinogen: DIETHYLNITROSAMINE, 55-18-5, Dose [Inhibitor]: 0, 50 MG/KG 1/WK FOR 5 WK ADMINISTERED 4 HR POST EACH CARCINOGEN TREATMENT (STUDY DURATION: 6 MO), Route [Inhibitor]: INTRAPERITONEAL, Species: RAT, Strain/Sex: BD6/FEMALE, Target Tissue: Type of Lesion: ESOPHAGUS: TUMOR, Dose [Carcinogen]: 80 MG/KG BW 1/WK FOR 5 WK, Promoter: NONE USED): 14%, 94%, -571%, p<0.001
- tumour outcome (control, treated, inhibition, significance) (Carcinogen: DIETHYLNITROSAMINE, 55-18-5, Dose [Inhibitor]: 0, 50 MG/KG 1/WK FOR 5 WK ADMINISTERED 4 HR POST EACH CARCINOGEN TREATMENT (STUDY DURATION: 6 MO), Route [Inhibitor]: INTRAPERITONEAL, Species: RAT, Strain/Sex: BD6/FEMALE, Target Tissue: Type of Lesion: LIVER: TUMOR, Dose [Carcinogen]: 80 MG/KG BW 1/WK FOR 5 WK, Promoter: NONE USED): 52%, 44%, 15%, not significant
- tumour outcome (control, treated, inhibition, significance) (Carcinogen: DIETHYLNITROSAMINE, 55-18-5, Dose [Inhibitor]: 0, 50 MG/KG 1/WK FOR 5 WK ADMINISTERED 24 HR POST EACH CARCINOGEN TREATMENT (STUDY DURATION: 6 MO), Route [Inhibitor]: INTRAPERITONEAL, Species: RAT, Strain/Sex: BD6/FEMALE, Target Tissue: Type of Lesion: LIVER: TUMOR, Dose [Carcinogen]: 80 MG/KG BW 1/WK FOR 5 WK, Promoter: NONE USED): 52%, 32%, 38%, not significant
- tumour outcome (control, treated, inhibition, significance) (Carcinogen: DIETHYLNITROSAMINE, 55-18-5, Dose [Inhibitor]: 0, 50 MG/KG 1/WK FOR 5 WK ADMINISTERED 24 HR POST EACH CARCINOGEN TREATMENT(STUDY DURATION: 6 MO), Route [Inhibitor]: INTRAPERITONEAL, Species: RAT, Strain/Sex: BD6/FEMALE, Target Tissue: Type of Lesion: ESOPHAGUS: TUMOR, Dose [Carcinogen]: 80 MG/KG BW 1/WK FOR 5 WK, Promoter: NONE USED): 14%, 4%, 71%, not significant

SMILES: CC1(C)[C@@H](O[C@H]2O[C@H](C(=O)O)[C@@H](O)[C@H](O)[C@H]2O[C@@H]2O[C@H](C(=O)O)[C@@H](O)[C@H](O)[C@H]2O)CC[C@]2(C)[C@H]3C(=O)C=C4[C@@H]5C[C@@](C)(C(=O)O)CC[C@]5(C)CC[C@@]4(C)[C@]3(C)CC[C@@H]12
- tumour outcome (control, treated, inhibition, significance) (Carcinogen: 7,12-DIMETHYLBENZ[A]ANTHRACENE, 57-97-6, Dose [Inhibitor]: 0, 0.05% IN DRINKING WATER BEGINNING 50 D PRIOR TO CARCINOGEN TREATMENT AND CONTINUING FOR THE DURATION OF STUDY (STUDY, Route [Inhibitor]: ORAL, Species: MOUSE, Strain/Sex: SENCAR/FEMALE, Target Tissue: Type of Lesion: SKIN: TUMOR, Dose [Carcinogen]: 40 NMOL IN 0.2 ML ACETONE ONCE, Promoter: 12-O-TETRADECANOYLPHORBOL-13-ACETATE, 16561-29-8): 100%, 100%, 0%, not significant
- tumour outcome (control, treated, inhibition, significance) (Carcinogen: 7,12-DIMETHYLBENZ[A]ANTHRACENE, 57-97-6, Dose [Inhibitor]: 0, 0.05% IN DRINKING WATER FOR 50 D PRIOR TO CARCINOGEN TREATMENT (STUDY DURATION: 23 WK), Route [Inhibitor]: ORAL, Species: MOUSE, Strain/Sex: SENCAR/FEMALE, Target Tissue: Type of Lesion: SKIN: TUMOR, Dose [Carcinogen]: 40 NMOL IN 0.2 ML ACETONE ONCE, Promoter: 12-O-TETRADECANOYLPHORBOL-13-ACETATE, 16561-29-8): 100%, 100%, 0%, not significant
- tumour outcome (control, treated, inhibition, significance) (Carcinogen: DIETHYLNITROSAMINE, 55-18-5, Dose [Inhibitor]: 0, 2 MG 3/WK FOR 32 WK BEGINNING 2 WK PRIOR TO CARCINOGEN TREATMENT (STUDY DURATION:32 WK), Route [Inhibitor]: INTRAMUSCULAR, Species: MOUSE, Strain/Sex: BALB/MALE, Target Tissue: Type of Lesion: LIVER :HEPATOCELLULAR CARCINOMA, Dose [Carcinogen]: 75 MG/KG 1/WK FOR 3 WK THEN 100 MG/KG 1/WK FOR 3 WK, Promoter: NONE USED): 7/11 (64%), 3.14 (21%), 65%, p<0.05
